# Legend:
# [1] = test system: Botryotinia fuckeliana (Botrytis cinerea); assay: Botryotinia fuckeliana (Botrytis cinerea) / liquid culture (Gray mould); assay type: cell-based; details: growth inhibition photometrically 3-4 days after application, vs untreated control
# [2] = test system: Glomerella lagenarium (Colletotrichum lagenarium); assay: Glomerella lagenarium (Colletotrichum lagenarium) / liquid culture (Anthracnose); assay type: cell-based; details: Colletotrichum orbiculare, growth inhibition photometrically 3-4 days after application, vs untreated control
# Fusarium culmorum [3] = assay: microbe, parasite or virus in culture; assay type: cell-based; details: read-out: control of Fusarium culmorum
# [4] = test system: Monographella nivalis (Microdochium nivale); assay: Monographella nivalis (Microdochium nivale) / liquid culture (foot rot cereals); assay type: cell-based; details: growth inhibition photometrically 4-5 days after application, vs untreated control
# [5] = test system: Magnaporthe grisea (Pyricularia oryzae); assay: microbe, parasite or virus in culture; assay type: cell-based; details: read-out: control of Magnaporthe grisea
# Fusarium culmorum [6] = assay: whole plant or invertebrate; assay type: in vivo; details: in Triticum aestivum, 144 h, read-out: control of Fusarium culmorum
compound,measurement,setting,value
CC(CC1CCCOC1)(CC(F)(F)F)NC(=O)c1cnc2c(F)cccc2c1 (stereo not shown) [E38],inhibition of growth at 20 ppm,[1],≥ 80%
same,inhibition of growth at 20 ppm,[2],≥ 80%
same,inhibition of growth at 20 ppm,Fusarium culmorum [3],≥ 80%
same,inhibition of growth at 20 ppm,[4],≥ 80%
same,inhibition of growth at 20 ppm,[5],≥ 80%
same,melting point,,85 to 88 °C
Cc1cc(C)n(CC(C)(CC(C)C)NC(=O)c2cnc3c(F)cccc3c2)n1 (stereo not shown) [E21],inhibition of growth at 20 ppm,[1],≥ 80%
same,inhibition of growth at 20 ppm,[2],≥ 80%
same,inhibition of growth at 20 ppm,Fusarium culmorum [3],≥ 80%
same,inhibition of growth at 20 ppm,[4],≥ 80%
same,inhibition of growth at 20 ppm,[5],≥ 80%
CC(C)CC(C)(Cc1cccs1)NC(=O)c1cnc2c(F)cccc2c1 (stereo not shown) [E12],inhibition of growth at 20 ppm,[1],≥ 80%
same,inhibition of growth at 20 ppm,[2],≥ 80%
same,inhibition of growth at 20 ppm,Fusarium culmorum [3],≥ 80%
same,pest or weed control at 200 ppm,Fusarium culmorum [6],≥ 80%
same,inhibition of growth at 20 ppm,[5],≥ 80%
Cc1c2ccccc2nn1CC(C)(CC(C)C)NC(=O)c1cnc2c(F)cccc2c1 (stereo not shown) [E17],inhibition of growth at 20 ppm,[1],≥ 80%
same,inhibition of growth at 20 ppm,Fusarium culmorum [3],≥ 80%
same,inhibition of growth at 20 ppm,[4],≥ 80%
Cc1nn(CC(C)(CC(C)C)NC(=O)c2cnc3c(F)cccc3c2)c2ccccc12 (stereo not shown) [E18],inhibition of growth at 20 ppm,[1],≥ 80%
same,inhibition of growth at 20 ppm,[2],≥ 80%
same,inhibition of growth at 20 ppm,Fusarium culmorum [3],≥ 80%
Cc1ncc(CC(C)(CC(C)C)NC(=O)c2cnc3c(F)cccc3c2)s1 (stereo not shown) [E8],inhibition of growth at 20 ppm,[1],≥ 80%
same,inhibition of growth at 20 ppm,[2],≥ 80%
same,inhibition of growth at 20 ppm,Fusarium culmorum [3],≥ 80%
same,inhibition of growth at 20 ppm,[5],≥ 80%
same,melting point,,146 to 150 °C
CON1CCC(CC(C)(CC(F)(F)F)NC(=O)c2cnc3c(C)cccc3c2)CC1 (stereo not shown) [E27],inhibition of growth at 20 ppm,[1],≥ 80%
same,inhibition of growth at 20 ppm,[2],≥ 80%
same,inhibition of growth at 20 ppm,Fusarium culmorum [3],≥ 80%
same,inhibition of growth at 20 ppm,[5],≥ 80%
CC(C)CC(C)(CN1CCC(F)(F)CC1)NC(=O)c1cnc2c(F)cccc2c1 (stereo not shown) [E5],inhibition of growth at 20 ppm,[1],≥ 80%
same,inhibition of growth at 20 ppm,[2],≥ 80%
same,inhibition of growth at 20 ppm,Fusarium culmorum [3],≥ 80%
same,inhibition of growth at 20 ppm,[5],≥ 80%
"CC(C)CC(C)(Cc1ccc(Cl)s1)NC(=O)c1cnc2c(F)cccc2c1 (stereo not shown) [E14, N-[1-[(5-chloro-2-thienyl)methyl]-1,3-dimethyl-butyl]-8-fluoro-quinoline-3-carboxamide]",inhibition of growth at 20 ppm,[1],≥ 80%
same,inhibition of growth at 20 ppm,[2],≥ 80%
same,inhibition of growth at 20 ppm,Fusarium culmorum [3],≥ 80%
same,pest or weed control at 200 ppm,Fusarium culmorum [6],≥ 80%
same,inhibition of growth at 20 ppm,[4],≥ 80%
same,inhibition of growth at 20 ppm,[5],≥ 80%
same,melting point,,126 to 128 °C
"CC(C)C[C@@](C)(CN1CCCC(F)(F)C1)NC(=O)c1cnc2c(F)cccc2c1 (single isomer, unassigned) [F2]",inhibition of growth at 20 ppm,[1],≥ 80%
same,inhibition of growth at 20 ppm,[2],≥ 80%
same,inhibition of growth at 20 ppm,Fusarium culmorum [3],≥ 80%
same,pest or weed control at 200 ppm,Fusarium culmorum [6],≥ 80%
same,inhibition of growth at 20 ppm,[4],≥ 80%
same,inhibition of growth at 20 ppm,[5],≥ 80%
Cc1cccc2cc(C(=O)NC(C)(CC3CCCOC3)CC(F)(F)F)cnc12 (stereo not shown) [E37],inhibition of growth at 20 ppm,[1],≥ 80%
same,inhibition of growth at 20 ppm,[2],≥ 80%
same,inhibition of growth at 20 ppm,Fusarium culmorum [3],≥ 80%
same,inhibition of growth at 20 ppm,[4],≥ 80%
same,inhibition of growth at 20 ppm,[5],≥ 80%
CC(C)CC(C)(CN1CCC(=C(F)F)CC1)NC(=O)c1cnc2c(F)cccc2c1 (stereo not shown) [E4],inhibition of growth at 20 ppm,[1],≥ 80%
same,inhibition of growth at 20 ppm,[2],≥ 80%
same,inhibition of growth at 20 ppm,Fusarium culmorum [3],≥ 80%
same,inhibition of growth at 20 ppm,[5],≥ 80%
CON1CCC(CC(C)(CC(F)(F)F)NC(=O)c2cnc3c(F)cccc3c2)CC1 (stereo not shown) [E28],inhibition of growth at 20 ppm,[1],≥ 80%
same,inhibition of growth at 20 ppm,[2],≥ 80%
same,inhibition of growth at 20 ppm,Fusarium culmorum [3],≥ 80%
same,melting point,,76 to 86 °C
CC(CC1CCOCC1)(CC(F)(F)F)NC(=O)c1cnc2ccccc2c1 (stereo not shown) [E31],inhibition of growth at 20 ppm,[1],≥ 80%
Cc1cnc(CC(C)(CC(C)(C)C)NC(=O)c2cnc3c(F)cccc3c2)o1 (stereo not shown) [E1],inhibition of growth at 20 ppm,[1],≥ 80%
same,inhibition of growth at 20 ppm,[2],≥ 80%
same,inhibition of growth at 20 ppm,Fusarium culmorum [3],≥ 80%
same,inhibition of growth at 20 ppm,[4],≥ 80%
CC(C)CC(C)(CN1CCSCC1)NC(=O)c1cnc2c(F)cccc2c1 (stereo not shown) [E7],inhibition of growth at 20 ppm,[1],≥ 80%
same,inhibition of growth at 20 ppm,Fusarium culmorum [3],≥ 80%
same,inhibition of growth at 20 ppm,[5],≥ 80%
Cc1nn(CC(C)(CC(C)C)NC(=O)c2cnc3c(F)cccc3c2)c(C)c1C (stereo not shown) [E20],inhibition of growth at 20 ppm,[1],≥ 80%
same,inhibition of growth at 20 ppm,[2],≥ 80%
same,inhibition of growth at 20 ppm,Fusarium culmorum [3],≥ 80%
same,inhibition of growth at 20 ppm,[4],≥ 80%
same,melting point,,140 to 144 °C
Cc1cccc2cc(C(=O)NC(C)(Cc3cccc(F)n3)CC(F)(F)F)cnc12 (stereo not shown) [E33],inhibition of growth at 20 ppm,[1],≥ 80%
same,inhibition of growth at 20 ppm,[2],≥ 80%
same,inhibition of growth at 20 ppm,Fusarium culmorum [3],≥ 80%
same,pest or weed control at 200 ppm,Fusarium culmorum [6],≥ 80%
same,inhibition of growth at 20 ppm,[4],≥ 80%
same,inhibition of growth at 20 ppm,[5],≥ 80%
CC(Cc1cccc(F)n1)(CC(F)(F)F)NC(=O)c1cnc2ccccc2c1 (stereo not shown) [E35],inhibition of growth at 20 ppm,[1],≥ 80%
same,inhibition of growth at 20 ppm,[2],≥ 80%
same,inhibition of growth at 20 ppm,Fusarium culmorum [3],≥ 80%
same,pest or weed control at 200 ppm,Fusarium culmorum [6],≥ 80%
same,melting point,,109 to 111 °C
CC(C)CC(C)(CN1CCCCO1)NC(=O)c1cnc2c(F)cccc2c1 (stereo not shown) [E6],inhibition of growth at 20 ppm,[1],≥ 80%
same,inhibition of growth at 20 ppm,[2],≥ 80%
same,inhibition of growth at 20 ppm,Fusarium culmorum [3],≥ 80%
same,pest or weed control at 200 ppm,Fusarium culmorum [6],≥ 80%
same,inhibition of growth at 20 ppm,[4],≥ 80%
same,inhibition of growth at 20 ppm,[5],≥ 80%
CC(CC1CCOCC1)(CC(F)(F)F)NC(=O)c1cnc2c(F)cccc2c1 (stereo not shown) [E25],inhibition of growth at 20 ppm,[1],≥ 80%
same,inhibition of growth at 20 ppm,[2],≥ 80%
same,inhibition of growth at 20 ppm,Fusarium culmorum [3],≥ 80%
same,melting point,,150 to 151 °C
CC(C)CC(C)(Cc1cnc(Cl)s1)NC(=O)c1cnc2c(F)cccc2c1 (stereo not shown) [E9],inhibition of growth at 20 ppm,[1],≥ 80%
same,inhibition of growth at 20 ppm,Fusarium culmorum [3],≥ 80%
same,pest or weed control at 200 ppm,Fusarium culmorum [6],≥ 80%
same,inhibition of growth at 20 ppm,[5],≥ 80%
same,melting point,,171 to 173 °C
Cc1cc(C(F)(F)F)nn1CC(C)(CC(C)C)NC(=O)c1cnc2c(F)cccc2c1 (stereo not shown) [E16],inhibition of growth at 20 ppm,[5],≥ 80%
same,melting point,,140 to 144 °C
CC(CC1CCCOC1)(CC(F)(F)F)NC(=O)c1cnc2ccccc2c1 (stereo not shown) [E36],inhibition of growth at 20 ppm,[1],≥ 80%
same,inhibition of growth at 20 ppm,[2],≥ 80%
same,inhibition of growth at 20 ppm,Fusarium culmorum [3],≥ 80%
same,melting point,,81 to 84 °C
"CC(C)C[C@](C)(CN1CCCC(F)(F)C1)NC(=O)c1cnc2c(F)cccc2c1 (single isomer, unassigned) [F1]",inhibition of growth at 20 ppm,[1],≥ 80%
same,inhibition of growth at 20 ppm,[2],≥ 80%
same,inhibition of growth at 20 ppm,Fusarium culmorum [3],≥ 80%
same,inhibition of growth at 20 ppm,[5],≥ 80%
CC(Cc1ccnc(F)c1)(CC(F)(F)F)NC(=O)c1cnc2c(F)cccc2c1 (stereo not shown) [E30],inhibition of growth at 20 ppm,[1],≥ 80%
same,inhibition of growth at 20 ppm,Fusarium culmorum [3],≥ 80%
same,pest or weed control at 200 ppm,Fusarium culmorum [6],≥ 80%
same,inhibition of growth at 20 ppm,[5],≥ 80%
same,melting point,,136 to 142 °C
Cc1cc(C(F)(F)F)n(CC(C)(CC(C)C)NC(=O)c2cnc3c(F)cccc3c2)n1 (stereo not shown) [E15],inhibition of growth at 20 ppm,[2],≥ 80%
same,inhibition of growth at 20 ppm,Fusarium culmorum [3],≥ 80%
same,pest or weed control at 200 ppm,Fusarium culmorum [6],≥ 80%
same,inhibition of growth at 20 ppm,[5],≥ 80%
Cc1nn(CC(C)(CC(C)C)NC(=O)c2cnc3c(F)cccc3c2)c(C)c1Cl (stereo not shown) [E19],inhibition of growth at 20 ppm,[1],≥ 80%
same,inhibition of growth at 20 ppm,[2],≥ 80%
same,inhibition of growth at 20 ppm,Fusarium culmorum [3],≥ 80%
same,inhibition of growth at 20 ppm,[4],≥ 80%
same,melting point,,134 to 138 °C
CC(Cc1ccc(F)nc1)(CC(F)(F)F)NC(=O)c1cnc2c(F)cccc2c1 (stereo not shown) [E29],inhibition of growth at 20 ppm,[1],≥ 80%
same,inhibition of growth at 20 ppm,[2],≥ 80%
same,inhibition of growth at 20 ppm,Fusarium culmorum [3],≥ 80%
same,melting point,,70 to 74 °C
CON1CCC(CC(C)(CC(F)(F)F)NC(=O)c2cnc3ccccc3c2)CC1 (stereo not shown) [E26],inhibition of growth at 20 ppm,[1],≥ 80%
same,inhibition of growth at 20 ppm,[2],≥ 80%
same,inhibition of growth at 20 ppm,Fusarium culmorum [3],≥ 80%
same,pest or weed control at 200 ppm,Fusarium culmorum [6],≥ 80%
same,inhibition of growth at 20 ppm,[5],≥ 80%
Cc1noc(CC(C)(CC(C)(C)C)NC(=O)c2cnc3c(F)cccc3c2)n1 (stereo not shown) [E2],inhibition of growth at 20 ppm,[1],≥ 80%
same,inhibition of growth at 20 ppm,[2],≥ 80%
same,inhibition of growth at 20 ppm,Fusarium culmorum [3],≥ 80%
same,inhibition of growth at 20 ppm,[5],≥ 80%
Cc1cccc2cc(C(=O)NC(C)(CC3CCOCC3)CC(F)(F)F)cnc12 (stereo not shown) [E32],inhibition of growth at 20 ppm,[1],≥ 80%
same,inhibition of growth at 20 ppm,[2],≥ 80%
same,inhibition of growth at 20 ppm,Fusarium culmorum [3],≥ 80%
same,inhibition of growth at 20 ppm,[5],≥ 80%
CC(C)(C)CC(C)(Cc1ncco1)NC(=O)c1cnc2c(F)cccc2c1 (stereo not shown) [E11],inhibition of growth at 20 ppm,[1],≥ 80%
same,inhibition of growth at 20 ppm,[2],≥ 80%
same,inhibition of growth at 20 ppm,Fusarium culmorum [3],≥ 80%
Cc1ccc(CC(C)(CC(C)C)NC(=O)c2cnc3c(F)cccc3c2)s1 (stereo not shown) [E13],inhibition of growth at 20 ppm,[1],≥ 80%
same,inhibition of growth at 20 ppm,[2],≥ 80%
same,inhibition of growth at 20 ppm,Fusarium culmorum [3],≥ 80%
same,inhibition of growth at 20 ppm,[5],≥ 80%
CC1=NN(CC(C)(CC(C)C)NC(=O)c2cnc3c(F)cccc3c2)CCC1 (stereo not shown) [E23],inhibition of growth at 20 ppm,[1],≥ 80%
same,inhibition of growth at 20 ppm,[2],≥ 80%
same,inhibition of growth at 20 ppm,Fusarium culmorum [3],≥ 80%
same,inhibition of growth at 20 ppm,[4],≥ 80%
CC(C)CC(C)(CN1CCCC(F)(F)C1)NC(=O)c1cnc2c(F)cccc2c1 (stereo not shown) [E3],inhibition of growth at 20 ppm,[1],≥ 80%
same,inhibition of growth at 20 ppm,[2],≥ 80%
same,inhibition of growth at 20 ppm,Fusarium culmorum [3],≥ 80%
same,pest or weed control at 200 ppm,Fusarium culmorum [6],≥ 80%
same,inhibition of growth at 20 ppm,[5],≥ 80%
CC(Cc1cccc(F)n1)(CC(F)(F)F)NC(=O)c1cnc2c(F)cccc2c1 (stereo not shown) [E34],inhibition of growth at 20 ppm,[1],≥ 80%
same,inhibition of growth at 20 ppm,[2],≥ 80%
same,inhibition of growth at 20 ppm,Fusarium culmorum [3],≥ 80%
same,pest or weed control at 200 ppm,Fusarium culmorum [6],≥ 80%
same,inhibition of growth at 20 ppm,[5],≥ 80%
CC(C)CC(C)(CN1CCCC=N1)NC(=O)c1cnc2c(F)cccc2c1 (stereo not shown) [E24],inhibition of growth at 20 ppm,[1],≥ 80%
same,inhibition of growth at 20 ppm,[2],≥ 80%
same,pest or weed control at 200 ppm,Fusarium culmorum [6],≥ 80%
same,inhibition of growth at 20 ppm,[4],≥ 80%
